Experimental data reported in patent US11690854B2, “Methods of treating heavy menstrual bleeding” (priority 2018, dated 2023).
Marks after values point to notes of the source that are not given here.

What was measured:
[1] = system: healthy women; experiment: 3-menstrual cycle study in healthy women; assay type: in vivo, human
[2] = system: monkeys; experiment: Repeat-dose study in monkeys; assay type: in vivo; conditions: 75, 150, 300 and 600 mg/kg/day, all doses
Source text: (§1) Based on pharmacologic actions of elagolix in humans a reversible effect on fertility may be expected in women.

[3] = system: rats; experiment: Fertility study and repeat-dose study in rats; assay type: in vivo
Source text: as §1

[4] = system: premenopausal women with endometriosis with associated pain; experiment: Phase 3 Study EM-I (and extension EM-III); assay type: in vivo, human; conditions: for Proportion of responders for Dyspareunia (Daily Endometriosis Pain Impact Scale) / Proportion of responders for dysmenorrhea (Daily Endometriosis Pain Impact Scale) / Proportion of responders for Non-Menstrual Pelvic Pain (Daily Endometriosis Pain Impact Scale): EM-I
Source text: (§2) Each placebo-controlled study assessed the reduction in endometriosis-associated pain over 6 months of treatment. More than 75 percent of women who completed Study EM-I and EM-II enrolled in the extension studies for an additional 6 month treatment period. Subjects were followed for up to 12 months post-treatment. The co-primary efficacy endpoints were the proportion of responders for dysmenorrhea and pelvic pain not related to menses (also known as non-menstrual pelvic pain [NMPP]) at Month 3 compared to placebo. The primary analysis independently evaluated these endpoints using a daily diary that asked patients to assess their pain and its impact on their daily activities, over the previous 24 hours. […] Women were defined as responders if they experienced clinically meaningful reduction in dysmenorrhea and/or NMPP with no increased analgesic use for endometriosis associated pain. Dyspareunia was evaluated as a secondary endpoint using the Daily Endometriosis Pain Impact Scale. Endometrial biopsies were performed in subjects in Study EM-I and its extension at Month 6 and Month 12.

[5] = system: women with endometriosis; experiment: Six Phase 2 studies of elagolix for endometriosis associated pain; assay type: in vivo, human
Description: Efficacy was assessed for dysmenorrhea (DYS), nonmenstrual pelvic pain (NMPP), dyspareunia, and general pelvic pain with a range of instruments. Additional efficacy assessments included quality of life and the use of analgesics for control of endometriosis pain. Across these Phase 2 studies, the enrollment criteria were similar and were intended to select premenopausal women aged 18 to 49 years of age with endometriosis confirmed by visual inspection (laparoscopy or laparotomy within 5 to 8 years of screening) who experienced moderate to severe endometriosis-associated pain. Women were included if they had regular menstrual cycles and no significant uterine fibroids or pelvic lesions. Total daily doses of elagolix ranging from 75 to 250 mg were evaluated across a range of pain instruments measuring […], or general pelvic pain (including patient global impression of change), during 12 or 24 weeks of treatment. […] Overall, 475 women have received elagolix for at least 12 weeks and 278 women for a period of at least 24 weeks. The majority of women were Caucasian (78.9% to 100%), while approximately 7% were black and approximately 4.5% were Hispanic. The mean age across these six Phase 2 studies was 31 to 33 years (range 18 to 48 years) and mean body mass index (BMI) of 23 to 28 kg/m. […] In addition, the majority were receiving analgesic medications (nonsteroidal anti-inflammatory drugs, opioids, and/or other) prior to study enrollment

[6] = system: premenopausal women with endometriosis with associated pain; experiment: Phase 3 Study EM-II (and extension EM-IV); assay type: in vivo, human
Source text: as §2, with “Scale.” for “Scale. Endometrial biopsies were performed in subjects in Study EM-I and its extension at Month 6 and Month 12.”

[7] = system: QTc interval; experiment: Thorough QT study; assay type: in vivo; conditions: up to 1200 mg; 17- to 23-fold of therapeutic concentrations; active control moxifloxacin 400 mg
Description: The effect of elagolix (up to 1200 mg) on QTc interval was evaluated in an active-controlled (moxifloxacin 400 mg) thorough QT study.

SMILES: COc1cccc(-c2c(C)n(Cc3c(F)cccc3C(F)(F)F)c(=O)n(C[C@H](NCCCC(=O)O)c3ccccc3)c2=O)c1F [Elagolix, 4-((R)-2-[5-(2-fluoro-3-methoxy-phenyl)-3-(2-fluoro-6-trifluoromethyl-benzyl)-4-methyl-2,6-dioxo-3,6-dihydro-2H-pyrimidin-1-yl]-1-phenyl-ethylamino)-butyric acid]
- Ovulation rate ([1]; 150 mg QD): approximately 50%
- Mean endometrial thickness (transvaginal ultrasound) ([1]; 150 mg QD and 200 mg BID, compared to pretreatment values): dose dependent decrease in the mean endometrial thickness
- Ovulation rate ([1]; 200 mg BID): ~32%
- Reproductive organ findings in repeat-dose study [2]: reversible atrophy of reproductive organs (cervix, uterus and vagina)
- Effect in fertility study ([3]; doses 50, 150, 300 mg/kg/day): no effect
- Ovarian findings in repeat-dose study ([3]; doses 600, 800 mg/kg/day): involution and a decrease in corpora lutea in ovaries
- Proportion of responders for Dyspareunia (Daily Endometriosis Pain Impact Scale) ([4]; 150 mg QD, Month 3, n/N 74/187, placebo 31.9): 39.6%
- Proportion of responders for dysmenorrhea (Daily Endometriosis Pain Impact Scale) ([4]; 150 mg QD, Month 3, n/N 115/248, placebo 19.6): 46.4*** %
- Proportion of responders for Non-Menstrual Pelvic Pain (Daily Endometriosis Pain Impact Scale) ([4]; 150 mg QD, Month 3, n/N 125/248, placebo 36.5): 50.4*** %
- Proportion of responders for Dyspareunia (Daily Endometriosis Pain Impact Scale) ([4]; 150 mg QD, Month 6, n/N 74/187, placebo 33.3): 39.6%
- Proportion of responders for dysmenorrhea (Daily Endometriosis Pain Impact Scale) ([4]; 150 mg QD, Month 6, n/N 104/247, placebo 23.1): 42.1*** %
- Proportion of responders for Non-Menstrual Pelvic Pain (Daily Endometriosis Pain Impact Scale) ([4]; 150 mg QD, Month 6, n/N 113/247, placebo 34.9): 45.7** %
- Proportion of responders for Dyspareunia (Daily Endometriosis Pain Impact Scale) ([4]; 200 mg BID, Month 3, n/N 81/172, placebo 31.9): 47.1*** %
- Proportion of responders for Non-Menstrual Pelvic Pain (Daily Endometriosis Pain Impact Scale) ([4]; 200 mg BID, Month 3, n/N 133/244, placebo 36.5): 54.5*** %
- Proportion of responders for dysmenorrhea (Daily Endometriosis Pain Impact Scale) ([4]; 200 mg BID, Month 3, n/N 185/244, placebo 19.6): 75.8*** %
- Proportion of responders for Dyspareunia (Daily Endometriosis Pain Impact Scale) ([4]; 200 mg BID, Month 6, n/N 81/161, placebo 33.3): 50.3*** %
- Proportion of responders for Non-Menstrual Pelvic Pain (Daily Endometriosis Pain Impact Scale) ([4]; 200 mg BID, Month 6, n/N 151/243, placebo 34.9): 62.1*** %
- Proportion of responders for dysmenorrhea (Daily Endometriosis Pain Impact Scale) ([4]; 200 mg BID, Month 6, n/N 183/243, placebo 23.1): 75.3*** %
- Endometrial biopsy findings ([4]; Study EM-I and its extension, Month 6 and Month 12): no abnormal biopsy findings post-baseline
- Safety and tolerability ([5]; all daily doses (100 to 250 mg)): safe and well tolerated
- Incidence of AEs that led to discontinuations ([5]; completed Phase 2 studies): 4.8%
- Effect on DYS and NMPP versus DMPA-SC ([5]; daily dose of 150 mg): comparable effect to subcutaneous depot medroxyprogesterone acetate (DMPA-SC)
- Effect versus leuprorelin ([5]; daily doses of 150 mg and 250 mg): less effect compared with leuprorelin
- Reduction in endometriosis-associated pain ([5]; daily doses of 100 to 250 mg, 12 or 24 weeks): clinically meaningful reductions in endometriosis-associated pain
- Days of bleeding per month (eDiary) ([5]; versus placebo): fewer days of bleeding per month compared with patients who received placebo
- Proportion of responders for Dyspareunia (Daily Endometriosis Pain Impact Scale) ([6]; 150 mg QD, Month 3, n/N 70/159, placebo 39.5): 44.0%
- Proportion of responders for dysmenorrhea (Daily Endometriosis Pain Impact Scale) ([6]; 150 mg QD, Month 3, n/N 96/221, placebo 22.7): 43.4%***
- Proportion of responders for Non-Menstrual Pelvic Pain (Daily Endometriosis Pain Impact Scale) ([6]; 150 mg QD, Month 3, n/N 110/221, placebo 36.5): 49.8** %
- Proportion of responders for Dyspareunia (Daily Endometriosis Pain Impact Scale) ([6]; 150 mg QD, Month 6, n/N 65/163, placebo 39.4): 39.9%
- Proportion of responders for dysmenorrhea (Daily Endometriosis Pain Impact Scale) ([6]; 150 mg QD, Month 6, n/N 102/221, placebo 25.4): 46.2%***
- Proportion of responders for Non-Menstrual Pelvic Pain (Daily Endometriosis Pain Impact Scale) ([6]; 150 mg QD, Month 6, n/N 114/221, placebo 40.6): 51.6%**
- Proportion of responders for Dyspareunia (Daily Endometriosis Pain Impact Scale) ([6]; 200 mg BID, Month 3, n/N 87/162, placebo 39.5): 53.7** %
- Proportion of responders for Non-Menstrual Pelvic Pain (Daily Endometriosis Pain Impact Scale) ([6]; 200 mg BID, Month 3, n/N 130/225, placebo 36.5): 57.8*** %
- Proportion of responders for dysmenorrhea (Daily Endometriosis Pain Impact Scale) ([6]; 200 mg BID, Month 3, n/N 163/225, placebo 22.7): 72.4*** %
- Proportion of responders for Dyspareunia (Daily Endometriosis Pain Impact Scale) ([6]; 200 mg BID, Month 6, n/N 92/165, placebo 39.4): 55.8*** %
- Proportion of responders for Non-Menstrual Pelvic Pain (Daily Endometriosis Pain Impact Scale) ([6]; 200 mg BID, Month 6, n/N 140/225, placebo 40.6): 62.2*** %
- Proportion of responders for dysmenorrhea (Daily Endometriosis Pain Impact Scale) ([6]; 200 mg BID, Month 6, n/N 173/225, placebo 25.4): 76.9*** %
- Effect on QTc interval [7]: does not prolong the QTc interval
